According to patent publication US9242981B2, “Fused pyrazole derivatives as novel ERK inhibitors” (Merck Sharp & Dohme Corp., priority 2010, dated 2016):

These molecules were tested against Mouse ERK2 protein (Mus musculus (Mouse), UniProt P63085) (assay: Coupled MEK1/ERK2 IMAP assay or Active ERK2 IMAP assay). Settings: Table 1, class symbols, 30 μM ATP.
Format: biochemical
Procedure: 14 μl of kinase buffer (10 mM Tris.HCl pH 7.2, 10 mM MgCl2, 0.01% Tween-20, 1 mM DTT) containing 0.4 ng unphosphorylated Mouse ERK2 protein is added to each well of a black 384-well assay plate. […] DMSO concentration during initial incubation is 6.7%. […] DMSO concentration during ERK activation was 4%. After one hour, reactions are terminated by addition of 60 μl IMAP detections beads in binding buffer (Molecular Devices). Binding is allowed to equilibrate for 30 minutes before reading the plate on an LJL Analyst Fluorescence Polarization plate reader.
Activated ERK2 activity was also determined in the IMAP assay format using the procedure outlined above. […] Reactions proceeded for 30 minutes before termination by addition of […] IMAP detection beads in binding buffer. Plates were read as above after 30 minute binding equilibration.

Chain of Mouse ERK2 protein (P63085 whole entry): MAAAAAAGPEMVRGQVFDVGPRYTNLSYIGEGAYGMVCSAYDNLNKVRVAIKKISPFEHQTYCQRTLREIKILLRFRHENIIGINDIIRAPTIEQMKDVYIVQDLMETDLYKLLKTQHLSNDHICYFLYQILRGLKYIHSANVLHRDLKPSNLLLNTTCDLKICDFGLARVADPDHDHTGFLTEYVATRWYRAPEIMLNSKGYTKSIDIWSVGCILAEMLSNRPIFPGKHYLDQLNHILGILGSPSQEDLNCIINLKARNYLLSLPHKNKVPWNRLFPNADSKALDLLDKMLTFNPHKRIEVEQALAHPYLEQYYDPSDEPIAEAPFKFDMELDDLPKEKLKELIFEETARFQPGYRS

Row | IC50 [nM] | SMILES
1 | 1000 to 100000 | Nc1nc(CC(=O)N2CCc3[nH]nc(-c4ccncc4)c3C2)cs1 [Compound 5, 5-[(2-amino-4-thiazolyl)-acetyl]-4,5,6,7-tetrahydro-3-(4-pyridinyl)-1H-pyrazolo[4,3-c]pyridine]
2 | 1000 to 100000 | Cn1cnc(CC(=O)N2CCc3[nH]nc(-c4ccncc4)c3C2)c1 [Compound 6, 4,5,6,7-tetrahydro-5-[(1-methyl-1H-imidazol-4-yl)acetyl]-3-(4-pyridinyl)-1H-pyrazolo[4,3-c]pyridine]
3 | 1000 to 100000 | O=C(Cc1cccs1)N1CCc2[nH]nc(-c3ccncc3)c2C1 [Compound 7, 4,5,6,7-tetrahydro-3-(4-pyridinyl)-5-(2-thienylacetyl)-1H-pyrazolo[4,3-c]pyridine]
4 | 101 to 1000 | O=C(Cc1ccccc1Cl)N1CCc2[nH]nc(-c3ccncc3)c2C1 [Compound 8, 5-[(2-chlorophenyl)acetyl]-4,5,6,7-tetrahydro-3-(4-pyridinyl)-1H-pyrazolo[4,3-c]pyridine]
5 | 101 to 1000 | O=C(Cc1cccc(Br)c1)N1CCc2[nH]nc(-c3ccncc3)c2C1 [Compound 9, 5-[(3-bromophenyl)acetyl]-4,5,6,7-tetrahydro-3-(4-pyridinyl)-1H-pyrazolo[4,3-c]pyridine]
6 | 1000 to 100000 | COc1ccccc1CC(=O)N1CCc2[nH]nc(-c3ccncc3)c2C1 [Compound 10, 4,5,6,7-tetrahydro-5-[(2-methoxyphenyl)acetyl]-3-(4-pyridinyl)-1H-pyrazolo[4,3-c]pyridine]
7 | 1000 to 100000 | Cc1nc(CC(=O)N2CCc3[nH]nc(-c4ccncc4)c3C2)c(C)s1 [Compound 11, 5-[(2,5-dimethyl-4-thiazolyl)acetyl]-4,5,6,7-tetrahydro-3-(4-pyridinyl)-1H-pyrazolo[4,3-c]pyridine]
8 | 1000 to 100000 | CC1(C(=O)Nc2ccccc2OCc2cccnc2)CCc2[nH]nc(-c3ccncc3)c2C1 (stereo not shown) [Compound 14, 4,5,6,7-tetrahydro-5-methyl-3-(4-pyridinyl)-N-[2-(3-pyridinylmethoxy)phenyl]-1H-indazole-5-carboxamide]
9 | 1000 to 100000 | COc1ccccc1NC(=O)C1(C)CCc2[nH]nc(-c3ccncc3)c2C1 (stereo not shown) [Compound 15, 4,5,6,7-tetrahydro-N-(2-methoxyphenyl)-5-methyl-3-(4-pyridinyl)-1H-indazole-5-carboxamide]
10 | 1000 to 100000 | CC(C)C(Cn1ccnc1)NC(=O)C1(C)CCc2[nH]nc(-c3ccncc3)c2C1 (stereo not shown) [Compound 16, 4,5,6,7-tetrahydro-N-[1-(1H-imidazoL-1-ylmethyl)-2-methylpropyl]-5-methyl-3-(4-pyridinyl)-1H-indazole-5-carboxamide]
11 | 1000 to 100000 | CC1(C(=O)Nc2ccccc2OC(F)(F)F)CCc2[nH]nc(-c3ccncc3)c2C1 (stereo not shown) [Compound 17, 4,5,6,7-tetrahydro-5-methyl-3-(4-pyridinyl)-N-[2-(trifluoromethoxy)phenyl]-1H-indazole-5-carboxamide]
12 | 1000 to 100000 | COc1ncccc1NC(=O)C1(C)CCc2[nH]nc(-c3ccncc3)c2C1 (stereo not shown) [Compound 18, 4,5,6,7-tetrahydro-N-(2-methoxy-3-pyridinyl)-5-methyl-3-(4-pyridinyl)-1H-indazole-5-carboxamide]
13 | 1000 to 100000 | CN(C)CCOc1ccccc1NC(=O)C1(C)CCc2[nH]nc(-c3ccncc3)c2C1 (stereo not shown) [Compound 19, N-[2-[2-(dimethylamino)-ethoxy]phenyl]-4,5,6,7-tetrahydro-5-methyl-3-(4-pyridinyl)-1H-indazole-5-carboxamide]
14 | 1000 to 100000 | CC1(C(=O)Nc2ccccc2OCC2CCCO2)CCc2[nH]nc(-c3ccncc3)c2C1 (stereo not shown) [Compound 20, 4,5,6,7-tetrahydro-5-methyl-3-(4-pyridinyl]-N-[2 [(tetrahydro-2-furanyl)-methoxy]phenyl]-1H-indazole-5-carboxamide]
15 | 1000 to 100000 | CC1(C(=O)Nc2ccccc2OCCN2CCCCC2)CCc2[nH]nc(-c3ccncc3)c2C1 (stereo not shown) [Compound 21, 4,5,6,7-tetrahydro-5-methyl-N-[2-[2-(1-piperidinyl)ethoxy]-phenyl]-3-(4-pyridinyl)-1H-indazole-5-carboxamide]
16 | 101 to 1000 | CN(C)c1ccc(CC(=O)N2CCc3[nH]nc(-c4ccncc4)c3C2)cc1 [Compound 22, 5[[4-(dimethylamino)-phenyl]acetyl]-4,5,6,7-tetrahydro-3-(4-pyridinyl)-1H-pyrazolo[4,3-c]pyridine]
17 | 101 to 1000 | COc1ccc(OC)c(CC(=O)N2CCc3[nH]nc(-c4ccncc4)c3C2)c1 [Compound 23, 5-[(2,5-dimethoxyphenyl)-acetyl]-4,5,6,7-tetrahydro-3-(4-pyridinyl)-1H-pyrazolo[4,3-c]pyridine]
18 | 101 to 1000 | O=C(Cc1ccccc1F)N1CCc2[nH]nc(-c3ccncc3)c2C1 [Compound 24, 5-[(2-fluorophenyl)acetyl]-4,5,6,7-tetrahydro-3-(4-pyridinyl)-1H-pyrazolo[4,3-c]pyridine]
19 | 101 to 1000 | O=C(Cc1cccnc1)N1CCc2[nH]nc(-c3ccncc3)c2C1 [Compound 25, 4,5,6,7-tetrahydro-3-(4-pyridinyl)-5-(3-pyridinylacetyl)-1H-pyrazolo[4,3-c]pyridine]

Row | IC50 [nM] | SMILES
20 | 101 to 1000 | O=C(Cc1ccccc1C(F)(F)F)N1CCc2[nH]nc(-c3ccncc3)c2C1 [Compound 26]
21 | 101 to 1000 | O=C(Cc1c(F)cccc1Cl)N1CCc2[nH]nc(-c3ccncc3)c2C1 [Compound 27, 5-[(2-chloro-6-fluorophenyl)acetyl]-4,5,6,7-tetrahydro-3-(4-pyridinyl)-1H-pyrazolo[4,3-c]pyridine]
22 | 101 to 1000 | O=C(N1CCc2[nH]nc(-c3ccncc3)c2C1)C1(c2ccc(Cl)cc2Cl)CC1 [Compound 28, 5-[[1-(2,4-dichlorophenyl)-cylcopropyl]carbonyl]-4,5,6,7-tetrahydro-3-(4-pyridinyl)-1H-pyrazolo[4,3-c]pyridine]
23 | 101 to 1000 | O=C(Cc1ccccc1Oc1ccccc1)N1CCc2[nH]nc(-c3ccncc3)c2C1 [Compound 29, 4,5,6,7-tetrahydro-5-[(2-phenoxyphenyl)acetyl]-3-(4-pyridinyl)-1H-pyrazol[4,3-c]pyridine]
24 | 101 to 1000 | O=C(Cc1ccccn1)N1CCc2[nH]nc(-c3ccncc3)c2C1 [Compound 30, 4,5,6,7-tetrahydro-3-(4-pyridinyl)-5-(2-pyridinylacetyl)-1H-pyrazolo[4,3-c]pyridine]
25 | 101 to 1000 | CS(=O)(=O)c1cccc(CC(=O)N2CCc3[nH]nc(-c4ccncc4)c3C2)c1 [Compound 31]
26 | 101 to 1000 | O=C(Cc1ccc(-c2ccccc2)cc1)N1CCc2[nH]nc(-c3ccncc3)c2C1 [Compound 32, 5-([1,1′-biphenyl]-4-ylacetyl)-4,5,6,7-tetrahydro-3-(4-pyridinyl)-1H-pyrazolo[4,3-c]pyridine]
27 | 101 to 1000 | O=C(Cc1ccccc1-c1cccnc1)N1CCc2[nH]nc(-c3ccncc3)c2C1 [Compound 33, 4,5,6,7-tetrahydro-3-(4-pyridinyl)-5-[[2-(3-pyridinyl)phenyl]acetyl]-1H-pyrazolo[4,3-c]pyridine]
28 | 1000 to 100000 | O=C(C(CO)c1ccccc1)N1CCc2[nH]nc(-c3ccncc3)c2C1 (stereo not drawn) [Compound 38, 1,4,6,7-tetrahydro-gamma-oxo-beta-phenyl-3-(4-pyridinyl)-5H-pyrazolo[4,3-c]pyridine-5-propanol]
29 | 1000 to 100000 | O=C(C1CCCc2ccccc21)N1CCc2[nH]nc(-c3ccncc3)c2C1 (stereo not shown) [Compound 39, 4,5,6,7-tetrahydro-3-(4-pyridinyl)-5-[(1,2,3,4-tetrahydro-1-naphthalenyl)carbonyl]-1H-pyrazolo[4,3-c]pyridine]
30 | 1000 to 100000 | CC(C(=O)N1CCc2[nH]nc(-c3ccncc3)c2C1)c1ccccc1 (stereo not shown) [Compound 40, 4,5,6,7-tetrahydro-5-(1-oxo-2-phenylpropyl)-3-(4-pyridinyl)-1H-pyrazolo[4,3-c]pyridine]
31 | 1000 to 100000 | CC(C(=O)N1CCc2[nH]nc(-c3ccncc3)c2C1)c1ccccc1Cl (stereo not shown) [Compound 41, 5-[2-(2-chlorophenyl)-1-oxopropyl]-4,5,6,7-tetrahydro-3-(4-pyridinyl)-1H-pyrazolo[4,3-c]pyridine]
32 | 1000 to 100000 | CCn1cc(Cl)c(NC(=O)N2CCc3[nH]nc(-c4ccncc4)c3C2)n1 [Compound 42, N-(4-chloro-1-ethyl-1H-pyrazol-3-yl)-1,4,6,7-tetrahydro-3-(4-pyridinyl)-5H-pyrazolo[4,3-c]pyridine-5-carboxamide]
33 | < 20 | O=C(NC1CNCC(c2ccccc2)C1)N1CCc2[nH]nc(-c3ccncc3)c2C1 (stereo not shown) [Compound 47, 1,4,6,7-tetrahydro-N-(5-phenyl-3-piperidinyl)-3-(4-pyridinyl)-5H-pyrazolo[4,3-c]pyridine-5-carboxamide]
34 | < 20 | CN1CC(NC(=O)N2CCc3[nH]nc(-c4ccncc4)c3C2)CC(c2ccccc2)C1 (stereo not shown) [Compound 49, 1,4,6,7-tetrahydro-N-(1-methyl-5-phenyl-3-piperidinyl)-3-(4-pyridinyl)-5H-pyrazolo[4,3-c]pyridine-5-carboxamide]
35 | 101 to 1000 | O=C(CC1CCCNC1)N1CCc2[nH]nc(-c3ccncc3)c2C1 (stereo not shown) [Compound 51, 4,5,6,7-tetrahydro-5-(3-piperidinylacetyl)-3-(4-pyridinyl)-1H-pyrazolo[4,3-c]pyridine]
36 | 21 to 100 | CC1CC(NC(=O)N2CCc3[nH]nc(-c4ccncc4)c3C2)CN(Cc2ccccc2F)C1 (stereo not shown) [Compound 52, N-[1-[(2-fluorophenyl)-methyl]-5-methyl-3-piperidinyl]-1,4,6,7-tetrahydro-3-(4-pyridinyl)-5H-pyrazolo[4,3-c]pyridine-5-carboxamide]
37 | 21 to 100 | O=C(N[C@@H]1CCCN(Cc2nccs2)C1)N1CCc2[nH]nc(-c3ccncc3)c2C1 [Compound 55, 1,4,6,7-tetrahydro-3-(4-pyridinyl)-N-[1-(2-thiazolylmethyl)-3(R)-piperidinyl]-5H-pyrazolo[4,3-c]pyridine-5-carboxamide]
